Measured values as given in patent US20120094964A1, “SULFAMOYL BENZOIC ACID DERIVATIVES AS TRPM8 ANTAGONISTS” (priority 2009, published 2012).

These molecules were tested against T1, human TRPM8 (Homo sapiens, UniProt Q7Z2W7) (assay: In Vitro human TRPM8 Functional Assay (intracellular Ca2+, Fluo4, FDSS, menthol activation)). Settings: HEK293 cells stably expressing human TRPM8; activation with L-(-)-Menthol; 11-point dose-response.
T1 construct: expressed in transfected cells
Format: cell-based
In short: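 Fluo4-loaded HEK293 cells stably expressing TRPM8 were preincubated with compound for 5 min at room temperature, then stimulated with L-menthol (20 μl of 90 μM stock) while fluorescence was read. IC50 values come from 11-point curves fitted to the mean of duplicate wells.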

T1 sequence (Q7Z2W7 whole entry): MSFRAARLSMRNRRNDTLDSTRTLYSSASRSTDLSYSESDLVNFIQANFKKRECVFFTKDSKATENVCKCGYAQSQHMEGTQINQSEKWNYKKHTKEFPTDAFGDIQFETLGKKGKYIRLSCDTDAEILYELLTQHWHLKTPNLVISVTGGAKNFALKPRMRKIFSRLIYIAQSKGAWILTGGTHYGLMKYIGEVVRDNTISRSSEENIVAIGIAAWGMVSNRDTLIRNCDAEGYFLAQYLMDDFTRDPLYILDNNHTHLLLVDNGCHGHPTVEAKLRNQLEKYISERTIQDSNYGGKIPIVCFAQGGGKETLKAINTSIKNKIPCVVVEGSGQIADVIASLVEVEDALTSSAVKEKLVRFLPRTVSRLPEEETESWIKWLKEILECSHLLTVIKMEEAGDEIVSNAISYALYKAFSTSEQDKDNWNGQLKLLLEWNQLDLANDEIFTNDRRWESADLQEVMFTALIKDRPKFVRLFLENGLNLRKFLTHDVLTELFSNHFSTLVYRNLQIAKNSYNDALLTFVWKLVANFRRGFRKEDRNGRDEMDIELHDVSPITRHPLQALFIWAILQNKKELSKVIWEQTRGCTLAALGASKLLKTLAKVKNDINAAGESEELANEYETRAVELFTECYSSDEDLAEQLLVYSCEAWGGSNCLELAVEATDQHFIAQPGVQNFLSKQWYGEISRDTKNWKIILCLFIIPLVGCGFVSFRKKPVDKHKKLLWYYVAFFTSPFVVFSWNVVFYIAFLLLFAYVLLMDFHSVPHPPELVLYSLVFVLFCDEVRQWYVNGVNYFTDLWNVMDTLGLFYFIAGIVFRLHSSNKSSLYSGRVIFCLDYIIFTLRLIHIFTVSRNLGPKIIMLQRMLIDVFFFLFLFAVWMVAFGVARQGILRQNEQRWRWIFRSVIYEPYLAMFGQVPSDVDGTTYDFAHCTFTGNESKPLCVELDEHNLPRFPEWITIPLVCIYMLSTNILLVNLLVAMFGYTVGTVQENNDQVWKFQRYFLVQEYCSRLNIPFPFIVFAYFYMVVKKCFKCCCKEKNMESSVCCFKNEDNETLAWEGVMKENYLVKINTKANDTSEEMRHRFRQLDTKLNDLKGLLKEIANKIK

IC50, < 1 µM:
COc1ccc(S(=O)(=O)N(Cc2ccccc2)c2ncc(C(F)(F)F)cc2Cl)cn1 [Example 189, N-Benzyl-N-(3-chloro-5-(trifluoromethyl)pyridin-2-yl)-6-methoxypyridine-3-sulfonamide]
O=C(O)c1ccc(S(=O)(=O)N(Cc2ccccc2)c2ncc(C(F)(F)F)cc2Cl)c(F)c1 [Example 190, 4-(N-Benzyl-N-(3-chloro-5-(trifluoromethyl)pyridin-2-yl)sulfamoyl)-3-fluorobenzoic acid]
O=C(O)c1ccc(S(=O)(=O)N(Cc2ccccc2)c2ncc(C(F)(F)F)cc2Cl)cc1F [Example 191, 4-(N-Benzyl-N-(3-chloro-5-(trifluoromethyl)pyridin-2-yl)sulfamoyl)-2-fluorobenzoic acid]
O=C(O)c1ccc(S(=O)(=O)N(CC2CCCC2)c2ncc(C(F)(F)F)cc2Cl)cc1 [Example 192, 4-(N-(3-Chloro-5-(trifluoromethyl)pyridin-2-yl)-N-(cyclopentylmethyl)sulfamoyl)benzoic acid]
O=C(O)c1ccc(S(=O)(=O)N(c2ncc(C(F)(F)F)cc2Cl)C2(c3ccccc3)CC2)cc1 [Example 193, 4-(N-(3-Chloro-5-(trifluoromethyl)pyridin-2-yl)-N-(1-phenylcyclopropyl)sulfamoyl)benzoic acid]
CN(C)S(=O)(=O)Nc1ccc(S(=O)(=O)N(Cc2ccccc2)c2ncc(C(F)(F)F)cc2Cl)cc1 [Example 194, N-Benzyl-N-(3-chloro-5-(trifluoromethyl)pyridin-2-yl)-4-((N,N-dimethylsulfamoyl)amino)benzenesulfonamide]
NC(=O)Nc1ccc(S(=O)(=O)N(Cc2ccccc2)c2ncc(C(F)(F)F)cc2Cl)cc1 [Example 195, N-Benzyl-N-(3-chloro-5-(trifluoromethyl)pyridin-2-yl)-4-ureidobenzenesulfonamide]
NS(=O)(=O)Nc1ccc(S(=O)(=O)N(Cc2ccccc2)c2ncc(C(F)(F)F)cc2Cl)cc1 [Example 196, N-Benzyl-N-(3-chloro-5-(trifluoromethyl)pyridin-2-yl)-4-(sulfamoylamino)benzenesulfonamide]
C[C@@H](c1ccccc1)N(c1ncc(C(F)(F)F)cc1Cl)S(=O)(=O)c1ccc(C(=O)O)cc1 [Example 197, (S)-4-(N-(3-Chloro-5-(trifluoromethyl)pyridin-2-yl)-N-(1-phenylethyl)sulfamoyl)benzoic acid]
O=C(O)c1ccc(S(=O)(=O)N(Cc2csc(-c3ccccc3)n2)c2ncc(C(F)(F)F)cc2Cl)cc1 [Example 198, 4-(N-(3-Chloro-5-(trifluoromethyl)pyridin-2-yl)-N-((2-phenylthiazol-4-yl)methyl)sulfamoyl)benzoic acid]
O=C(O)c1ccc(S(=O)(=O)N(Cc2noc(-c3ccccc3)n2)c2ncc(C(F)(F)F)cc2Cl)cc1 [Example 199, 4-(N-(3-Chloro-5-(trifluoromethyl)pyridin-2-yl)-N-((5-phenyl-1,2,4-oxadiazol-3-yl)methyl)sulfamoyl)benzoic acid]
